Data reported in a melting point compilation (Tetko et al.; mined from patent text by program, amines drawn as free bases though some values may be those of a salt).

With `c1cc(N2CCOCC2)c2c(c1)-n1cnc(-c3nc(C4CC4)no3)c1N1CCN=C21` the melting point was 217 to 220 °C.
Molecule `Cc1noc(NS(=O)(=O)c2ccsc2C(=O)Nc2cccc(C(=O)O)c2)c1Br` has a melting point of 183 to 185 °C.
Molecule `CCCCCCCCCCCCCCn1ccc(C(=O)O)c1` has a melting point of 66 to 67 °C.
For `CN1C(=O)CCn2nc(-c3ccc(F)cc3)c(-c3ccncc3)c21`, the melting point was 185 to 186 °C.
`S=C(NCc1cccc2ccccc12)N1CCc2c([nH]c3ccccc23)C1c1ccc2c(c1)OCO2` (stereo not drawn) gave a melting point of 111 to 113 °C.
`O=C(O)CCCOc1cccc(CCCCCCOc2ccc3c(c2CCCc2ccccc2)CCCC3=O)c1CCC(=O)O` showed a melting point of 89 to 91 °C.
Work on `O=C(c1cncc(Br)c1)N1CCC(=C2c3ccc(Cl)cc3CCc3cccnc32)CC1` yielded a melting point of 87.5 to 96.4 °C.
`NCc1ccccc1-c1ccc(C(=O)N2Cc3ccc(C(=O)NCc4cccnc4)n3Cc3ccccc32)cc1` showed a melting point of 115 to 120 °C.
Molecule `Cc1ccc(NC(=O)NCC2(c3ccccc3)CCCCC2)cc1` has a melting point of 135 to 137 °C.
In the case of `O=C(O)c1csc(-c2ccc(Cl)cc2)n1`, the melting point is reported as 189 to 190 °C.
Work on `CN1C(=O)C(NC(=O)Nc2cccc(Cl)c2)N=C(c2ccccc2)c2ccccc21` (stereo not drawn) yielded a melting point of 178 to 180 °C.
In the case of `O=C1c2ccccc2C(=O)N1CCCn1cc(S(=O)(=O)c2ccccc2)c2ccccc21`, the melting point is reported as 205 to 206 °C.
In the case of `O=C(c1cc(Cl)ccc1Nc1ccncc1)N1CCCCC1`, the melting point is reported as 158 to 159 °C.
In the case of `COc1ccc(C=CN(C)C)c([N+](=O)[O-])c1[N+](=O)[O-]`, the melting point is reported as 100 to 131 °C.
`O=C(Nc1ccc(-c2ccccc2)cc1)c1ccc2n1Cc1ccccc1N(C(=O)COc1ccc(Cl)cc1)C2` showed a melting point of 201 to 202 °C.
`O=C(Nc1ccc(O)cc1)C(=O)N1CCC(Cc2ccccc2)CC1` showed a melting point of 167 to 169 °C.
Work on `CCOC(=O)C1OC1c1ccc(OC)cc1` (stereo not drawn) yielded a melting point of 40 to 43 °C.
Work on `Cc1c(NC(=O)c2ccc(OC[C@@H]3CCCO3)cc2)ccc2cc(CNC3CCOCC3)cnc12` yielded a melting point of 158 to 159 °C.
Molecule `O=C(NC(=O)c1c(Cl)cccc1Cl)Nc1ccc(Cl)c(Cl)c1` has a melting point of 232 °C.
Work on `COc1ccc(CCn2ccn(C3CCc4ccccc4C3)c2=S)cc1OC` (stereo not drawn) yielded a melting point of 97 to 101 °C.
`CN1CCC(=O)N(c2cccc(Cl)c2Cl)C1=O` showed a melting point of 163 to 165 °C.
`CCOC(=O)c1c(Cn2ccnc2CC)nc2cc(OC)c(OC)cc2c1-c1ccc(OC)c(OC)c1` showed a melting point of 163 to 164 °C.
`COCc1c(C(=O)OC(C)C)ncc2[nH]c3cccc(-c4cccnc4)c3c12` gave a melting point of 187 to 188 °C.
For `CCOC(=O)N1CCC(Nc2ccc(Cl)cc2[N+](=O)[O-])CC1`, the melting point was 116 °C.
For `CCOC(=O)c1c[nH]c2c(=O)ccc(Cl)cc2c1=O`, the melting point was 138 to 140 °C.
Molecule `CCCCCCCCCCCCc1ccc(S(=O)(=O)Nc2nncs2)cc1` has a melting point of 126 to 127 °C.
Molecule `Cc1ccc(NCC2CCN(C(C)C)CC2)c(C(=O)Nc2ccc(Cl)cn2)c1` has a melting point of 172 to 174 °C.
With `CC(=O)NCC1CN(c2ccc(N3CCN(C(=O)COC(=O)CO)CC3)c(F)c2)C(=O)O1` (stereo not drawn) the melting point was 105 to 107 °C.
For `CC(=O)OC1C(OC(=O)C=Cc2ccccc2)C=C(C)C(=O)CC1(C)C` (stereo not drawn), the melting point was 138 to 139 °C.
In the case of `COc1ccn2nc(-c3ccccc3)c(-c3ccc(=O)n(C(C)C)n3)c2c1Br`, the melting point is reported as 205 to 206 °C.
With `Cn1cc(Br)cc(Nc2ccc(N3CCN(CCF)CC3)cn2)c1=O` the melting point was 141 to 143 °C.
Work on `CCCCc1nc2c(N)nc3ccccc3c2n1CCCC1(C)OCCO1` yielded a melting point of 169 to 172 °C.
Work on `CSCc1cc(=O)c2ccc(OCc3ccccc3)c(C)c2o1` yielded a melting point of 110 to 114 °C.
For `CON=C(c1ccc(F)cc1)c1ccc2[nH]c(NC(=O)OC)nc2c1`, the melting point was 290 to 295 °C.
`Cc1ccc2c(c1)C(O)(c1ccccc1Cl)C(=O)N2` (stereo not drawn) gave a melting point of 295 to 300 °C.
`O=C(Nc1ccccc1)c1cn(-c2ccccc2)c2ccccc2c1=O` gave a melting point of 203 to 205 °C.
With `NNC(=O)CCc1cccc(C(F)(F)F)c1` the melting point was 80 to 81 °C.
Molecule `CCC(CC)Nc1cc(C)nc(Cl)c1[N+](=O)[O-]` has a melting point of 82 to 84 °C.
`COc1cc(C2(O)CCOCC2)ccc1OCc1ccc2ccccc2c1` showed a melting point of 150 to 151 °C.
Work on `CN(C)C=Nc1ccc2nnc(-c3ccc([N+](=O)[O-])o3)n2n1` yielded a melting point of 291 to 296 °C.
In the case of `COc1ccc(-c2cc(=O)n(Cc3ccc(F)c(F)c3)nc2-c2ccc(OC)cc2)cc1`, the melting point is reported as 155 to 156 °C.
For `CCOP(=O)(/C=C/c1cn(-c2ccccc2)nc1OCc1ccc(OCc2nc(-c3cccnc3)oc2C)c(OC)c1)OCC`, the melting point was 128 to 129 °C.
In the case of `N#Cc1nc(F)c(Cl)c(F)c1Cl`, the melting point is reported as 78 to 79 °C.
`CC(C)C[C@H](O)[C@H](O)[C@H](CC1CCCCC1)NC(=O)OC(C)(C)C` showed a melting point of 128 to 130 °C.
In the case of `NCCNC(=O)CNC(=O)Cc1ccccc1`, the melting point is reported as 132 to 137 °C.
With `O=[N+]([O-])c1ccc(-c2nc(CO)no2)cc1` the melting point was 155 to 156 °C.
Molecule `COC(=O)C1=C(C)NC(C)=C(C(=O)N2CCC3(CC2)CC(=O)N(OC)C3=O)C1c1cccc([N+](=O)[O-])c1` (stereo not drawn) has a melting point of 228 to 230 °C.
With `NCCCCc1cnc(-c2ccccc2)s1` the melting point was 62 to 64 °C.
For `CC1Cc2cc3c(cc2C(c2ccc([N+](=O)[O-])cc2)=NN1C1=NCCO1)OCO3` (stereo not drawn), the melting point was 194 to 196 °C.
For `COC(=O)CCn1c(=O)n2cc(C)cc2c2ccccc21`, the melting point was 89 to 91 °C.
For `CC(CC(C(=O)N(C)C)(c1ccccc1)c1ccccc1)N1CCC(NC(=O)c2cccc(C(F)(F)F)c2)C(O)C1` (stereo not drawn), the melting point was 141 °C.
For `N#Cc1cc(SC(F)(F)F)[nH]c1-c1ccc(Cl)cc1`, the melting point was 203 to 205 °C.
Work on `Cc1ccc2sc(-c3ccccn3)nc(=O)c2c1` yielded a melting point of 220 to 221 °C.
With `CCCCN(CCCC12CC3CC(CC(C3)C1)C2)C(=O)NCCCc1ccncc1` the melting point was 79.8 to 80.4 °C.
With `COC(=O)c1ccc2c(c1)CN(S(=O)(=O)c1ccc(C)cc1)C2` the melting point was 164 to 166 °C.
`ClCCCCCOc1ccc(C2=C(c3ccccc3)CCCc3cc(OC4CCCCO4)ccc32)cc1` (stereo not drawn) showed a melting point of 99 to 101 °C.
`CC(C)(C)C1CCC2(CC1)CC(O)(CNC1CCCCC1)CO2` (stereo not drawn) gave a melting point of 113 to 115 °C.
`CCN1CCN(C(C(=O)N(C)CCO)c2ccc(Nc3nc(-c4cccc(NC(=O)c5cc6c(s5)CCCCC6)c4C)cn(C)c3=O)cc2)CC1` (stereo not drawn) gave a melting point of 163 to 165 °C.
`Cc1nc2oc3c(c2c(=O)[nH]1)CCCC3` gave a melting point greater than 300 °C.
`CN(c1ccc(S(C)(=O)=O)cc1)S(=O)(=O)c1cccc(NC(=O)c2ccc(Br)cc2)c1` gave a melting point of 216 to 218 °C.
`CCOCn1c(Sc2ccc(Cl)c(Cl)c2)cc(C#N)c1-c1ccc(Cl)cc1` gave a melting point of 95 to 97 °C.
With `CCCCCCCCCCCCCCCCn1c2cc(Cl)ccc2c2ccc(Cl)cc21` the melting point was 82 to 83 °C.
`CC(C)NC(=O)c1nn(-c2ccc(Cl)cc2)c(=O)c2c(N)scc12` gave a melting point of 197 to 199 °C.
Work on `COc1c(C2CCN(CCCCNC(=O)c3ccc(-c4ccc(C#N)cc4)cc3)CC2)ccc2c1CCCC2` yielded a melting point of 154 °C.
With `C=CCc1cc(C=C(C(=O)OCC)C(=O)OCC)cc(OC)c1OC` the melting point was 43 to 44 °C.
Work on `O=c1[nH]nc(CCCN2CCN(c3cccc(Cl)c3)CC2)n1CCOc1ccccc1` yielded a melting point of 150 to 153 °C.
`O=C(O)c1ccc(NCCCCCCCCCCCc2ccccc2)cc1` showed a melting point of 50 to 52 °C.
`Oc1nc(Cl)nc(NN=Cc2cc(C(F)(F)F)cc(C(F)(F)F)c2)n1` gave a melting point of 258 °C.
Work on `CCCCOCCOc1ccc(-c2ccc3c(c2)C=C(C(=O)O)CCN3c2ccc(S(=O)(=O)N(C)C)cc2)cc1` yielded a melting point of 236 to 238 °C.
With `CC(C)C(NC(=O)c1ccccc1SSc1ccccc1C(=O)NC(C(=O)O)C(C)C)C(=O)O` (stereo not drawn) the melting point was 226 to 228 °C.
`CC(=O)Cc1cc2[nH]c(=O)oc2cc1Br` showed a melting point of 160 to 162 °C.
For `Nc1cnn(-c2cccc(C(F)(F)F)c2)c(=O)c1-c1cccc(C(F)(F)F)c1`, the melting point was 68 to 70 °C.
In the case of `CC(C)(F)[C@H]1C(=O)N[C@@H]1CC(=O)OCc1ccccc1` (racemic), the melting point is reported as 112 to 116 °C.
With `CCCNC(=O)C1CCCN1C(=O)OCc1ccccc1` (stereo not drawn) the melting point was 74 to 75 °C.
With `CC(C)c1csc(/C=C/c2cccc(NC(=O)Cc3cccc(CC(=O)O)c3)c2)n1` the melting point was 122 to 124 °C.
Work on `Cc1cc(Cl)cc2c1OCCCC2NS(C)(=O)=O` (stereo not drawn) yielded a melting point of 154 to 156 °C.
`CSc1cc(SC)c(N)c(SC)c1N` showed a melting point of 114 to 116 °C.
Molecule `Cc1oc(C2=NOC(c3cc(Cl)cc(Cl)c3)(C(F)(F)F)C2)cc1C(=O)NCC(=O)NCC(F)(F)F` (stereo not drawn) has a melting point of 172 to 174 °C.
`O=S(=O)(c1ccc(Cl)cc1)c1ccc(-c2ccc(O)cc2)cc1` showed a melting point of 268 to 270 °C.
Molecule `CCn1cc(C(=O)O)c(=O)c2cc(F)c(N3CCC(CNC(C)C)C3)nc21` (stereo not drawn) has a melting point of 302 to 304 °C.
For `c1ccc(-c2ccn3nccc3n2)cc1`, the melting point was 122 to 124 °C.
For `c1ccc2c(OCC3CO3)c(OCC3CO3)ccc2c1` (stereo not drawn), the melting point was 131 to 133 °C.
For `CCOC(=O)c1c(S(=O)(=O)c2ccc(C)cc2)nc(-c2ccccc2)c([N+](=O)[O-])c1C(=O)OCC`, the melting point was 115 to 117 °C.
With `CC(=O)SCCC(=O)N1C(C(=O)O)CC2CCCCC21` (stereo not drawn) the melting point was 131 to 133 °C.
Work on `Nc1cc(Br)ccc1-c1ccc(F)cc1F` yielded a melting point of 67 to 69 °C.
Work on `CCCOc1ccc2cc(-c3ccc4c(c3)C=C(C(=O)Nc3ccc(CN(C)C5CCOCC5)cc3)CCS4(=O)=O)oc2c1` yielded a melting point of 215 to 216 °C.
For `Cc1[nH]c2ccccc2c1C1=C(Cl)C(=O)C=C(Cl)C1=O`, the melting point was 158 to 159 °C.
`COc1ccc(Nc2c(C#N)cnc3cc(OC)c(OC)cc23)cc1O` showed a melting point of 254 to 256 °C.
`N#Cc1cnc2sc(Br)cc2c1O` gave a melting point greater than 255 °C.
`O=C(CC(F)(F)F)NC[C@H]1CN(c2ccc3c(c2)CCCc2cn[nH]c2-3)C(=O)O1` gave a melting point of 243 to 245 °C.
For `COc1ccc(C2(CNC(=O)Nc3c(C(C)C)cccc3C(C)C)CCCC2)cc1`, the melting point was 144 to 147 °C.
In the case of `Nc1ccccc1C(=O)N1CCN(CCc2ccc(Cl)cc2)CC1`, the melting point is reported as 108 to 109 °C.
With `CCOC(=O)/C=C/c1ccc(Cn2ccnc2)c(Cl)c1` the melting point was 112 to 114 °C.
For `COc1cc2c(cc1OC)C1(CCC(=O)NC1=O)CCC2=O` (stereo not drawn), the melting point was 269 to 271 °C.
Work on `CC(=O)c1ccc(NC(=O)C=C(c2ccc(Cl)cc2)c2ccc(Cl)cc2)cc1` yielded a melting point of 213 to 215 °C.
Work on `COc1ccc(C(C)CC(=O)N2C(=O)OCC2C(C)C)cc1` (stereo not drawn) yielded a melting point of 62 to 63.5 °C.
`CCOC(=O)C#CC(OC(N)=O)c1ccccc1` (stereo not drawn) showed a melting point of 82 °C.
With `Oc1ccc(C2CCC3(CC2)OCCO3)cc1` the melting point was 152 to 153 °C.
